In PMC6325200, “Effects of Microplate Type and Broth Additives on Microdilution MIC Susceptibility Assays” (Antimicrobial Agents and Chemotherapy, 2018):
≈ marks a conversion by molar mass, not a printed value.

Tests used:
E. coli ATCC 25922 = assay: microbe, parasite or virus in culture; details: n = 2
Method: A positive control of a row of just the bacteria and a negative control of only the medium were included for every plate tested.
The compounds along with standard antibiotics were serially diluted 2-fold across the 96-well plates. […] A sample of each culture was then diluted 40-fold in fresh MH broth (in presence and absence of Tween) and incubated at 37°C for 2 to 3 h.
For experiments in the presence of surfactant, 2% beractant (25 mg/ml) was added to the mid-log-phase cultures and mixed gently and added to all the 96-well plates. For experiments in the presence of serum, a mixture of 50% of human serum along with 50% MHB was prepared and used throughout the experiment.

A. baumannii ATCC 19606 = assay: microbe, parasite or virus in culture; details: Acinetobacter baumannii, n = 2
Summary of the method: (§1)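 First, a sample of each culture was diluted 40-fold in fresh Mueller-Hinton broth containing or lacking Tween. Next, this was incubated 2 to 3 h at 37°C. Compounds, alongside comparator antibiotics, were tested as 2-fold serial dilutions on 96-well plates.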

K. pneumoniae ATCC 13883 = assay: microbe, parasite or virus in culture; details: Klebsiella pneumoniae, n = 2
Summary of the method: as §1

P. aeruginosa ATCC 10145 = assay: microbe, parasite or virus in culture; details: Pseudomonas aeruginosa, n = 2
Summary of the method: as §1

E. coli = details: literature value; cited from earlier work

COc1cc(Cc2cnc(N)nc2N)cc(OC)c1OC [Trimethoprim, trimethoprim]
MIC (E. coli ATCC 25922; Corning NBS plate, MHB −T80, no additive): 0.25 to 0.5 µg/mL
MIC (E. coli ATCC 25922; Corning PS plate, MHB +0.002% T80, no further additive): 1 to 2 µg/mL
MIC (E. coli ATCC 25922; Corning PS plate, MHB −T80, no additive): 0.25 to 0.5 µg/mL
MIC (E. coli ATCC 25922; Corning TC plate, MHB +0.002% T80, no further additive): 0.5 to 1 µg/mL
MIC (E. coli ATCC 25922; Corning TC plate, MHB −T80, no additive): 0.25 to 0.5 µg/mL
MIC (E. coli ATCC 25922; Escherichia coli, ATCC25922, 24 h, Corning NBS, MH + 2% LHB, 2% LS): 1 µg/mL
MIC (E. coli ATCC 25922; Escherichia coli, ATCC25922, 24 h, Corning NBS, MH + 2% LHB, 50% HS): 1 to 2 µg/mL
MIC (E. coli ATCC 25922; Escherichia coli, ATCC25922, 24 h, Corning NBS, MH + 2% LHB, no additive): 1 µg/mL
MIC (E. coli ATCC 25922; Escherichia coli, ATCC25922, 24 h, Corning NBS, MH + T80, 2% LS): 2 µg/mL
MIC (E. coli ATCC 25922; Escherichia coli, ATCC25922, 24 h, Corning NBS, MH + T80, 50% HS): 2 µg/mL
MIC (E. coli ATCC 25922; Escherichia coli, ATCC25922, 24 h, Corning PS, MH + 2% LHB, 2% LS): 1 to 2 µg/mL
MIC (E. coli ATCC 25922; Escherichia coli, ATCC25922, 24 h, Corning PS, MH + 2% LHB, 50% HS): 1 to 8 µg/mL
MIC (E. coli ATCC 25922; Escherichia coli, ATCC25922, 24 h, Corning PS, MH + 2% LHB, no additive): 1 to 2 µg/mL
MIC (E. coli ATCC 25922; Escherichia coli, ATCC25922, 24 h, Corning PS, MH + T80, 2% LS): 1 to 2 µg/mL
MIC (E. coli ATCC 25922; Escherichia coli, ATCC25922, 24 h, Corning PS, MH + T80, 50% HS): 1 to 2 µg/mL
MIC (E. coli ATCC 25922; Escherichia coli, ATCC25922, 24 h, Corning TC, MH + 2% LHB, 2% LS): 1 to 2 µg/mL
MIC (E. coli ATCC 25922; Escherichia coli, ATCC25922, 24 h, Corning TC, MH + 2% LHB, 50% HS): 1 to 2 µg/mL
MIC (E. coli ATCC 25922; Escherichia coli, ATCC25922, 24 h, Corning TC, MH + 2% LHB, no additive): 1 µg/mL
MIC (E. coli ATCC 25922; Escherichia coli, ATCC25922, 24 h, Corning TC, MH + T80, 2% LS): 1 to 2 µg/mL
MIC (E. coli ATCC 25922; Escherichia coli, ATCC25922, 24 h, Corning TC, MH + T80, 50% HS): 1 to 2 µg/mL
MIC (E. coli ATCC 25922; Escherichia coli, ATCC25922, 24 h, Trek PS, MH + 2% LHB, 2% LS): 0.5 to 1 µg/mL
MIC (E. coli ATCC 25922; Escherichia coli, ATCC25922, 24 h, Trek PS, MH + 2% LHB, 50% HS): 1 µg/mL
MIC (E. coli ATCC 25922; Escherichia coli, ATCC25922, 24 h, Trek PS, MH + 2% LHB, no additive): 1 µg/mL
MIC (E. coli ATCC 25922; Escherichia coli, ATCC25922, 24 h, Trek PS, MH + T80, 2% LS): 2 µg/mL
MIC (E. coli ATCC 25922; Escherichia coli, ATCC25922, 24 h, Trek PS, MH + T80, 50% HS): 2 to 4 µg/mL
MIC (E. coli ATCC 25922; Escherichia coli, ATCC25922, Corning NBS plate, MHB +0.002% T80, no further additive): 1 µg/mL (≈ 3.44 µM)
MIC (E. coli ATCC 25922; Escherichia coli, ATCC25922, Corning NBS plate, MHB −T80, no additive): 0.25 to 0.5 µg/mL (≈ 0.861 to 1.72 µM)
MIC (E. coli ATCC 25922; Escherichia coli, ATCC25922, Corning NBS, MH, 2% LS): 1 to 2 µg/mL (≈ 3.44 to 6.89 µM)
MIC (E. coli ATCC 25922; Escherichia coli, ATCC25922, Corning NBS, MH, 50% HS): 1 to 2 µg/mL (≈ 3.44 to 6.89 µM)
MIC (E. coli ATCC 25922; Escherichia coli, ATCC25922, Corning PS plate, MHB +0.002% T80, no further additive): 1 to 2 µg/mL (≈ 3.44 to 6.89 µM)
MIC (E. coli ATCC 25922; Escherichia coli, ATCC25922, Corning PS plate, MHB −T80, no additive): 0.25 to 0.5 µg/mL (≈ 0.861 to 1.72 µM)
MIC (E. coli ATCC 25922; Escherichia coli, ATCC25922, Corning PS, MH, 2% LS): 1 µg/mL (≈ 3.44 µM)
MIC (E. coli ATCC 25922; Escherichia coli, ATCC25922, Corning PS, MH, 50% HS): 1 to 2 µg/mL (≈ 3.44 to 6.89 µM)
MIC (E. coli ATCC 25922; Escherichia coli, ATCC25922, Corning TC plate, MHB +0.002% T80, no further additive): 0.5 to 1 µg/mL (≈ 1.72 to 3.44 µM)
MIC (E. coli ATCC 25922; Escherichia coli, ATCC25922, Corning TC plate, MHB −T80, no additive): 0.25 to 0.5 µg/mL (≈ 0.861 to 1.72 µM)
MIC (E. coli ATCC 25922; Escherichia coli, ATCC25922, Corning TC, MH, 2% LS): 1 to 2 µg/mL (≈ 3.44 to 6.89 µM)
MIC (E. coli ATCC 25922; Escherichia coli, ATCC25922, Corning TC, MH, 50% HS): 0.5 to 1 µg/mL (≈ 1.72 to 3.44 µM)
MIC (E. coli ATCC 25922; Escherichia coli, ATCC25922, Nunc PS plate, MHB +0.002% T80): 0.25 to 0.5 µg/mL (≈ 0.861 to 1.72 µM)
MIC (E. coli ATCC 25922; Escherichia coli, ATCC25922, Nunc PS plate, MHB −T80): 0.25 µg/mL (≈ 0.861 µM)
MIC (E. coli ATCC 25922; Escherichia coli, ATCC25922, Nunc U TC plate, MHB +0.002% T80): 0.25 to 0.5 µg/mL (≈ 0.861 to 1.72 µM)
MIC (E. coli ATCC 25922; Escherichia coli, ATCC25922, Nunc U TC plate, MHB −T80): 0.25 to 0.5 µg/mL (≈ 0.861 to 1.72 µM)
MIC (E. coli ATCC 25922; Escherichia coli, ATCC25922, Nunc flat TC plate, MHB +0.002% T80): 0.25 to 0.5 µg/mL (≈ 0.861 to 1.72 µM)
MIC (E. coli ATCC 25922; Escherichia coli, ATCC25922, Nunc flat TC plate, MHB −T80): 0.25 to 0.5 µg/mL (≈ 0.861 to 1.72 µM)
MIC (E. coli ATCC 25922; Escherichia coli, ATCC25922, Trek PS plate, MHB +0.002% T80, no further additive): 2 µg/mL (≈ 6.89 µM)
MIC (E. coli ATCC 25922; Escherichia coli, ATCC25922, Trek PS plate, MHB −T80, no additive): 0.5 to 1 µg/mL (≈ 1.72 to 3.44 µM)
MIC (E. coli ATCC 25922; Escherichia coli, ATCC25922, Trek PS, MH, 2% LS): 1 to 4 µg/mL (≈ 3.44 to 13.8 µM)
MIC (E. coli ATCC 25922; Escherichia coli, ATCC25922, Trek PS, MH, 50% HS): 1 µg/mL (≈ 3.44 µM)
MIC (E. coli ATCC 25922; Trek PS plate, MHB −T80, no additive): 0.5 to 1 µg/mL
MIC (A. baumannii ATCC 19606; ATCC19606, Corning NBS, MHB +T80): 64 µg/mL (≈ 220 µM)
MIC (A. baumannii ATCC 19606; ATCC19606, Corning NBS, MHB -T80): 16 to 32 µg/mL (≈ 55.1 to 110 µM)
MIC (A. baumannii ATCC 19606; ATCC19606, Corning PS, MHB +T80): > 64 µg/mL
MIC (A. baumannii ATCC 19606; ATCC19606, Corning PS, MHB -T80): > 64 µg/mL
MIC (A. baumannii ATCC 19606; ATCC19606, Corning TC, MHB +T80): 32 to 64 µg/mL (≈ 110 to 220 µM)
MIC (A. baumannii ATCC 19606; ATCC19606, Corning TC, MHB -T80): 16 to 32 µg/mL (≈ 55.1 to 110 µM)
MIC (K. pneumoniae ATCC 13883; ATCC13883, Corning NBS, MHB +T80): 1 to 2 µg/mL (≈ 3.44 to 6.89 µM)
MIC (K. pneumoniae ATCC 13883; ATCC13883, Corning NBS, MHB -T80): 4 to 8 µg/mL (≈ 13.8 to 27.6 µM)
MIC (K. pneumoniae ATCC 13883; ATCC13883, Corning PS, MHB +T80): 2 to 4 µg/mL (≈ 6.89 to 13.8 µM)
MIC (K. pneumoniae ATCC 13883; ATCC13883, Corning PS, MHB -T80): 1 to 8 µg/mL (≈ 3.44 to 27.6 µM)
MIC (K. pneumoniae ATCC 13883; ATCC13883, Corning TC, MHB +T80): 4 to 16 µg/mL (≈ 13.8 to 55.1 µM)
MIC (K. pneumoniae ATCC 13883; ATCC13883, Corning TC, MHB -T80): 4 to 16 µg/mL (≈ 13.8 to 55.1 µM)
MIC (P. aeruginosa ATCC 10145; ATCC10145, Corning NBS, MHB +T80): > 64 µg/mL
MIC (P. aeruginosa ATCC 10145; ATCC10145, Corning NBS, MHB -T80): > 64 µg/mL
MIC (P. aeruginosa ATCC 10145; ATCC10145, Corning PS, MHB +T80): > 64 µg/mL
MIC (P. aeruginosa ATCC 10145; ATCC10145, Corning PS, MHB -T80): > 64 µg/mL
MIC (P. aeruginosa ATCC 10145; ATCC10145, Corning TC, MHB +T80): > 64 µg/mL
MIC (P. aeruginosa ATCC 10145; ATCC10145, Corning TC, MHB -T80): > 64 µg/mL
MIC (literature) (E. coli): 0.06–0.25 ([72]) µg/ml
